Columns and labels:
[1] = system: Lewis lung carcinoma (LLC1) tumors; assay: Lewis lung carcinoma (LLC1) subcutaneous tumor model, tumor area growth and tumor mass; assay type: in vivo, C57BL/6J mice; design: Tumor Growth Rate (TGR): unit not given beside the values; settings: for Tumor Mass (gm ± STE): LLC1 tumor bearing mice, IP dosing per Table 2, combinations in alternating regimen (chemotherapy days 2-4, 14-16; PMO days 6-12, 18-23), mass at euthanization; for Tumor Growth Rate (TGR): linear regression of change in tumor area day 14 to 25, slope ± standard deviation, IP dosing per Table 2, combinations in alternating regimen; for antitumor effect / tumor growth (in words): single agent, or staggered (alternating) regimen with the PMO after chemotherapy; for % of Saline TGR: tumor growth rate relative to saline group, combinations in alternating regimen
Description: Examples are described in Smith et al., 2000. The model is based on the transplantation of Lewis lung cells (LLC1), a highly tumorigenic lung carcinoma cell line, into syngeneic […] mice. LLC1 produce discernable tumors by day 4 when 200,000 cells are transplanted subcutaneously onto the right flanks of C57-BL mice. Therapeutic efficacy was evaluated based on daily caliper measurements of tumor length and width and tumor weights at the end of 25 day studies. A 20 base PMO antisense to c-myc mRNA (AVI-4126, SEQ ID NO:1) was evaluated for efficacy in the model. […] AVI-4126 was also administered i.p. (300 μg/mouse/day) in combination with chemotherapy. Co-administration of cisplatin (83 μg/mouse/day) on days 2-4 and 13-15 with AVI-4126 on days 2-8 and 13-19 had no additional effect on tumor growth inhibition versus cisplatin alone (Example 1).
Tumor cells. The Lewis lung cell line (LLC1) used in the studies described herein was derived from the Lewis lung carcinoma established in 1951 by Dr. M. R. Lewis and has been utilized for the evaluation of cancer chemotherapeutic agents Mayo, 1972; Bertram et al., 1980). Lewis lung carcinoma cells (ATCC, Manassas, Va.) were maintained in DMEF-12 medium supplemented with 10% fetal bovine serum, penicillin (100 units/mL), streptomycin (100 μg/mL), and amphotericin (0.25 μg/mL) at 37° C. in a 5% CO2/95% air humidified incubator. Cells were harvested as an approximately 70% confluent culture of log growth phase at the time of transplant and were injected as a cell suspension in media at a concentration of 200,000 cells per 100 μl injection.
Syngeneic mice. C57BL/6J mice (Simonsen, Gilroy, Calif.) weighing 22 to 24 g were housed in sterile plastic cages at the Laboratory Animal Resources Facility at Oregon State University (OSU), Corvallis, Oreg. Mice were given access to rodent chow (Harlan Teklad, Madison, Wis.) and tap water ad libitum and exposed to 12 hour light/dark cycles. All animal protocols conformed to the ethical guidelines of the 1975 Declaration of Helsinki and were approved by the ‘Institutional Animal Care and Use Committee’ of OSU.
Statistical Analysis. All data are reported as the mean ±SEM were determined by the computer program InStat2 (GraphPad, San Diego). The p values were calculated by InStat2 using ANOVA and the Tukey multiple comparison test. Graphs, linear regression, and slopes were generated using Prism v2.0 (GraphPad).
Tumor studies with AVI-4126 and Chemotherapy Following a 5 day acclimation period, C57BL/6J mice (Simonsen, Gilroy, CA) cared for as set forth above, were anesthetized with isoflurane, shaved, and injected subcutaneously in the right rear flank with approximately 200,000 viable LLC1 cells (study day 0). Injection sites were monitored daily to ensure that solid, homogeneous tumor growth was consistently obtained 4 days after LLC1 cell injection. Chemotherapy injections were prepared fresh daily before i.p injection (see Table 1). All PMO's and cisplatin (Sigma, St. Louis, Mo.) were dissolved in sterile, apyrogenic saline (Sigma) adjusted to an injection volume of 0.1 ml. A Taxol stock solution (6 mg/ml in Cremophore EL and ethanol, Bristol Myers Squibb, Syracuse, N.Y.) was diluted to 1 mg/ml in 1× PBS prior to injection. Etoposide (Sigma) stock solutions were prepared by dissolving in 70% ethanol at 11 mg/ml followed by dilution with saline to a final concentration of 5 mg/ml. 5-FU (Calbiochem) was dissolved in saline at a concentration of 12.5 mg/ml.
Animals were treated as described. Therapeutic efficacy was evaluated based on daily measurement of tumor area (length x width, cm^2) with digital calipers and tumor mass determined at the time of euthanization. Mice in all studies were euthanized by asphyxiation with CO2 on the final day of PMO treatments. […]

c-myc protein = assay: Immunoblot analysis of c-myc protein in LLC1 tumor lysates; assay type: in vivo, mouse; settings: for effect on c-myc levels in tumor tissue (in words): compared to saline
Description: Immunoblot analysis of c-myc protein. All antibodies were obtained from Santa Cruz Biotechnology (Santa Cruz, Calif.). Three-hundred micrograms of LLC1 protein lysate was analyzed on a 5% SDS/acrylamide stacking gel with a 12% v/v sodium dodecylsulfate (SDS)/acrylamide separating gel. Gels were blotted, probed, and visualized according to standard Western blotting protocols. Membranes were probed with rabbit anti-mouse c-myc polyclonal antibodies N-262 (sc-764) or C-19 (sc-788) diluted 1:2000 in blocking buffer (Genotech) followed by goat-anti rabbit HRP-conjugated antibody (sc-2054). The relative amount of c-myc and actin protein was visualized by ECLplus (Amersham, Piscataway, N.J.) and analyzed on a Kodak 440 Image Station using 1 D Image Analysis software (Kodak, Rochester N.Y.). Membranes were then soaked in stripping buffer (Genotech) for 20 minutes at 25° C. and reprobed with a 1:2000 dilution of goat anti-mouse β-actin polyclonal antibody (sc-1616), which served as a protein loading control, followed by donkey anti-goat HRP-conjugated antibody (sc-2056).
An initial study was performed to determine AVI-4126 levels in the tumor and to evaluate sequence specific inhibition of c-myc protein levels. Tumor bearing mice 24 days post LLC1 transplant were given injections of either saline, AVI-4126 or scrambled control (100 μg/mouse IP). Tumors were excised 4 hours later and evaluated for AVI-4126 and analyzed by immunoblot for c-myc protein, as described below.
Animals were treated as described. Therapeutic efficacy was evaluated based on daily measurement of tumor area (length x width, cm^2) with digital calipers and tumor mass determined at the time of euthanization. Mice in all studies were euthanized by asphyxiation with CO2 on the final day of PMO treatments. Tumors were immediately removed, weighed and approximately 0.25 g tumor tissue was homogenized in 1.0 ml Tissue-PE lysis buffer (Genotech, St. Louis, Mo.) containing protease inhibitor cocktail tablets (Complete™ Mini EDTA-free, Boehringer-Mannheim) which were dissolved in the lysis buffer 30 minutes before tissue homogenization. Lysates were centrifuged at 15,000× g for 15 minutes at 4° C. and 150 μl aliquots of supernatant were combined 1:1 with electrophoresis sample buffer and boiled at 100° C. for 5 minutes.

[2] = ICP-MS detection and quantitation of platinum/cisplatin in LLC1 tumor tissue; assay type: in vivo, C57BL/6J mice; settings: data not shown
Description: ICP-MS Detection and Quantitation of platinum/cisplatin. A 200 μL aliquot of tissue lysate (40 mg of LLC1 tumor tissue) was dissolved in 1.33 mL of aqua regia followed by a 10 fold dilution. The samples were then analyzed by ICP-MS technique for the presence of Pt according to the method of Long et al (16) by Anatek Labs (Moscow, ID).

[3] = design: species or system C57BL/6J mice; settings: mouse, in vivo, ip
Description: HPLC detection of AVI-4126 in LLC1 tumor tissue. The presence of AVI-4126 in tumor tissue lysates (prepared 4 hours after a single injection of 100 μg of AVI-4126 into tumor bearing mice) was determined via a 5′-flouresceinyl DNA:AVI-4126 (FDNA:AVI-4126) duplex detection method developed at AVI BioPharma (Corvallis, Oreg.). Briefly, 500 ng of internal standard (10 μl of a […] of 0.025M Tris buffer, pH=8) of a 15mer internal PMO standard complementary to the FDNA probe (5′-GAGGGGCATCGTCGC-3′ (SEQ ID NO: 14)) was added to each tumor tissue lysate. The lysate was combined with 250 μl methanol and mixed thoroughly. The sample was centrifuged 10 minutes at 15,000× g and the supernatant was removed and heated to 70° C. for g 10 minutes. […]
The entire 100 μl sample was then analyzed for the presence of FDNA:AVI-4126 duplex using reverse phase HPLC with fluorescence detection. The sample was injected into a Dionex DNAPac PA-100 column (4×250) using a Varian HPLC pump (model 9010 inert) equipped with a fluorescence detector and Al-200 autosampler (100 μl injector loop volume). […] The pump gradient program was 90% A+10% B (0 min) and 55% A+45% B (20 min.) at a flow rate of 1.5 ml/min with fluorescence detection at a 494 nm (excitation) and 518 nm emission wavelengths. […]

[4] = single injection 100 μg/mouse IP, tumors excised 4 hours later, FIG. 5A

| Molecule | Tumor Mass (gm ± STE) [1] | Tumor Growth Rate (TGR) [1] | % of Saline TGR [1] | also measured |
| --- | --- | --- | --- | --- |
| N.N.[Cl][Pt][Cl] [cisplatin, cis-diamminedichloroplatinum] | 0.550 ± 0.081 gm | 0.101 ± 0.011 | 49.5% | necropsy appearance of tumors ([1]; cisplatin alone, and cisplatin plus co-administered AVI-4126): highly invasive and vascularized; antitumor effect / tumor growth (in words) [1]: significantly lower; effect on c-myc levels in tumor tissue (in words) (c-myc protein): no statistical difference |
| CC(=O)O[C@H]1C(=O)[C@@]2(C)[C@H]([C@H](OC(=O)c3ccccc3)[C@]3(O)C[C@H](OC(=O)[C@H](O)[C@@H](NC(=O)c4ccccc4)c4ccccc4)C(C)=C1C3(C)C)[C@]1(OC(C)=O)CO[C@@H]1C[C@@H]2O [Taxol, Paclitaxel] | 1.827 ± 0.210 gm | 0.234 ± 0.023 | 114.7% |  |
| AVI-4126: 20 base PMO antisense to c-myc translation start site: ACGTTGAGGGGCATCGTCGC (antisense ACGTTGAGGGGCATCGTCGC; all phosphorodiamidate morpholino (PMO)) | 1.788 ± 0.651 gm | 0.212 ± 0.031 | 103.9% | antitumor effect / tumor growth (in words) [1]: failed to significantly reduce tumor growth; effect of AVI-4126 administration on platinum levels in tumor tissue [2]: did not effect platinum levels; inhibition of c-myc levels compared to saline control, n-terminal antibody (c-myc protein; band intensity normalized to β-actin, AVI-4126 alone 300 μg/mouse/day IP, FIG. 6A): 74%; inhibition of c-myc levels compared to saline control, c-terminal antibody (c-myc protein; band intensity normalized to β-actin, AVI-4126 alone 300 μg/mouse/day IP, FIG. 6B): 61%; reduction of c-myc levels relative to saline control (c-myc protein; [4]): 77%; reduction of c-myc levels relative to scrambled PMO control (c-myc protein; [4]): 63%; FDNA:AVI-4126 duplex fluorescence peak in tumor tissue lysate [3]: readily detectable; degradation of AVI-4126 in tumor tissue [3]: No evidence of degradation |
| p21AS: control PMO, mouse p21 sequence: CATCACCAGGATTGGACATGG (antisense CATCACCAGGATTGGACATGG; all phosphorodiamidate morpholino (PMO)) | 1.260 ± 0.389 gm | 0.184 ± 0.030 | 90.2% |  |
| RAD51AS: control PMO, mouse RAD51 sequence: CAAGCTGCATTTGCATAGCCAT (antisense CAAGCTGCATTTGCATAGCCAT; all phosphorodiamidate morpholino (PMO)) | 1.193 ± 0.166 gm | 0.198 ± 0.017 | 97.1% |  |
| scrambled control PMO: c-myc antisense scramble control PMO: ACTGTGAGGGCGATCGCTGC (ACTGTGAGGGCGATCGCTGC; all phosphorodiamidate morpholino (PMO)) |  |  |  | effect on c-myc levels in tumor tissue (in words) (c-myc protein): no effect |
| COc1cc([C@@H]2c3cc4c(cc3[C@@H](O[C@@H]3O[C@@H]5CO[C@@H](C)O[C@H]5[C@H](O)[C@H]3O)[C@H]3COC(=O)[C@H]23)OCO4)cc(OC)c1O [etoposide] | 0.970 ± 0.244 gm | 0.153 ± 0.025 | 75.0% |  |

Reference: patent US20030087861A1, “Combined approach to treatment of cancer using a c-myc antisense oligomer” (priority 2001, published 2003)
